In patent US20240115662A1, “METHODS OF TREATING HYPOGONADOTROPIC HYPOGONADISM AND COGNITION IMPAIRMENT FOLLOWING A TRAUMATIC BRAIN INJURY” (WISCONSIN ALUMNI RESEARCH FOUNDATION, priority 2021, published 2024):

Experiments:
hESC = hESC differentiation into neuroectoderm / neural precursor cells (nestin immunoblot, rosettes); assay type: cell-based, human
Method: FIG. 5A. hESC were grown in TESR1 media-Li in the presence of E2 (10 nM), P4 (2 μM) or E2 (10 nM)+P4 (2 μM) for 6 d and cell proliferation measured using the trypan blue assay. Results are expressed as mean±SEM, n=3 (*p<0.05, **p<0.005 compared to 6 d control). FIG. 5B. Equal amounts of protein from cell lysates of hESC treated for 9 d as described above were analyzed by immunoblot using a monoclonal antibody against nestin (clone 10C2; Chemicon, CA, USA). FIG. 5C. hESC were cultured for 4 days, enzymatically lifted and placed into EB media (containing serum) and rocked gently for an additional 4 days prior to being placed in one of two neural induction medias for an additional 11 days, where P4 was either absence or present. During this transition from EB to rosettes, colony structures treated with P4 also were treated with a Progesterone Receptor (PR) antagonist (RU-486; 20 μM) for 11 days. At 19 day, morphological observation and molecular analysis were performed. (i) Control structure, a minimum of three rosette structures were observed inside the cystic cavity (arrows). (ii) hESC structure in the absence of P4 (no rosettes) (iii) PR antagonist treated rosettes (no rosettes; RU-486, 20 μM). FIG. 5D. Equal amounts of protein from cell lysates of above structures were analyzed by immunoblot for nestin.
These structures are predominantly composed of NPCs (NSCs) akin to those that form the neural tube and can be further differentiated into various neural lineages. To understand which hormonal signals regulate the specification of hESC into NSCs, we closely examined the composition of the medias and supplements that had been developed by trial and error for the maintenance of hESC, and their differentiation first into embryoid bodies (EBs) and then into NPC. We identified P4 in the B27 supplement as being necessary and sufficient for the survival and differentiation of late embryonic neurons in vitro (E18 primary hippocampal/cortical/striatal neurons). […]

[1] = test system: human embryonic stem cells (hESC); assay: hESC proliferation, trypan blue assay; assay type: cell-based; details: 6 d; E2 (10 nM), P4 (2 μM); compared to untreated control cells
Method: We therefore tested whether P4 was essential for the induction of NPC from hESC. hESC were treated with P4, E2 (which upregulates P4 receptor (PR) expression), or a combination of E2+P4.

[2] = test system: male Sprague Dawley rats with craniectomy or controlled cortical impact (CCI) injury; assay: Plasma steroid concentrations after craniectomy (Sham) or CCI injury, hCG with or without RU-486; assay type: in vivo, rat
Method: Male Sprague Dawley (SD) rats (n=58, 5-6-months old) were acquired from Harlan Laboratories Inc. (Madison, WI) and acclimated to the environment over 2 days. Rats were then weighed and handled for no less than 5 min each for 5 consecutive days and daily thereafter while being housed, fed and maintained on a 12-hour reverse light/dark cycle. The Institutional Animal Care and Use Committee (Animal Component of Research Protocol) at the William S. Middleton Veterans Administration Hospital approved the procedures used in this study and the research was conducted in an AAALAC-approved facility. Experimenters were blinded as to the identity of the animals throughout injections, blood collections, and body weight and hormone data analyses.
All surgical procedures were carried out under isoflurane gas anesthesia (5% for induction; 1.5-3.0% for maintenance, craniectomy ˜15-30 min duration; craniectomy+CCI injury ˜25-45 min duration). An anesthesia chamber was used for induction and a nose cone was used for maintenance.
Anesthetized rats were mounted in a Kopf stereotaxic device (Model 900; Tujunga, CA), where the animal's head was held in place by non-traumatic ear bars and a bite bar. Anesthesia was maintained by nose cone while the head was shaved and sterilized with 70% ethanol and Betadine™ (Purdue Products L.P., Stamford, CT) antiseptic solution. Throughout surgery anesthesia levels were monitored closely and were frequently adjusted as need, based on heart rate, respiration rate and oxygen saturation. A homeothermic blanket control unit (Harvard Apparatus, Holliston, MA) was used to monitor body temperature and to prevent hypothermia throughout surgery.
Under aseptic conditions, the cranium and its bony landmarks including bregma (β) and lambda (λ) were exposed by making a midline incision along the scalp into the skin and fascia covering the skull. A 6 mm diameter craniectomy was centered on the midline at 2.5 mm anterior to β. The cortical impact was made at 2.5 mm anterior to β over the midline of the medial frontal cortex with an Impact One™ Stereotaxic CCI instrument (Leica, Buffalo Grove, IL), using a 5 mm impactor (bit size), traveling at 2.25 m/s (velocity), extending 3 mm below the cortical surface (impact depth) for 100 ms (dwell time). Sham-injured groups received the same surgical procedures up to and including craniectomy but no CCI injury. After surgery, the rats were placed on a heating pad, monitored closely and upon awakening were tested 30 min later for righting reflex to assess any immediate effects of craniectomy or CCI injury on righting ability, and then returned to their home cages.
Baseline blood draws were collected from all animals. […] Pregnyl® is a highly purified pyrogen-free preparation obtained from the urine of pregnant females. Each vial contains 10,000 USP units of sterile dried powder with 5 mg monobasic sodium phosphate and 4.4 mg dibasic sodium phosphate that is diluted in solvent containing water, 0.56% sodium chloride and 0.9% benzyl alcohol (www.drugs.com/pro/pregnyl.html).
Rats were anesthetized (between 9:00 a.m.-12:00 noon) and their tails placed in a 200 mL beaker filled with warm water (≤44° C.) for 5 min. The tail was clean with 70% alcohol, the minimal amount of the tail tip snipped with a blade, and/or the wound reopened by removal of the scab for subsequent bleeds, and ˜1 mL of whole blood was collected directly into EDTA tubes at baseline (PID-10) and at PID, 1, 11, 19 and 29. […] Animals were injected with Lactate Ringers solution (5 mL) for fluid resuscitation. At the terminal bleed (day 29), blood also was collected via heart puncture. Collected blood was immediately centrifuged at 4,000 g for 10-20 min and the plasma aliquoted into Eppendorf tubes for storage at −80° C.

Question: Which “nestin expression (immunoblot)” value (hESC; hESC treated for 9 d, E2 (10 nM), P4 (2 μM)) does the source give for `CC(=O)[C@H]1CC[C@H]2[C@@H]3CCC4=CC(=O)CC[C@]4(C)[C@H]3CC[C@]12C` [P4, progesterone] here?
Answer: increased the neuroectodermal marker nestin

Question: What about the “decrease in rate of hESC proliferation” value [1] of the same compound?
Answer: 29%

Question: For `C[C@]12CC[C@@H]3c4ccc(O)cc4CC[C@H]3[C@@H]1CC[C@@H]2O` [E2, estradiol], which “decrease in rate of hESC proliferation” value [1] is on record?
Answer: 16%

Question: What does the source list for “11β-[p-(Dimethylamino)phenyl]-17α-(1-propynyl)estra-4,9-dien-17β-ol-3-one [RU-486]”?
Answer: nestin (immunoblot) in PR-antagonist treated structures (hESC; RU-486 20 μM): absence of nestin; neuroectodermal rosette formation (hESC; RU-486 20 μM for 11 days, in presence of P4): No rosettes were detected; plasma P4 concentration ([2]; CCI injured animals with RU-486 pretreatment, PID 1): 40.9 ± 10.0 ng/mL; plasma T concentration ([2]; CCI injured animals with RU-486 pretreatment, PID 11): 4.5 ± 1.5 ng/mL; plasma T concentration ([2]; CCI injured animals with RU-486 pretreatment, PID 19): 3.1 ± 1.1 ng/mL; effect on circulating 11-DOC and corticosterone ([2]; CCI injured animals, RU486 pretreatment): no significant effects; effect on corticosterone ([2]; Sham surgery, saline and hCG-treated animals, RU486 pretreatment (except PID 19 in Sham+hCG)): prevented Sham surgery-induced decreases in corticosterone through PID 29; circulating 11-DOC ([2]; Sham+hCG rats with RU486 pretreatment (40 mg/kg i.p.), PID 1): 282.4 ± 28.0 ng/mL; plasma P4 concentration ([2]; Sham+hCG with RU486 pretreatment, PID 29): 8.5 ± 4.5 ng/mL; effect on 11-DOC ([2]; Sham+saline with RU486 pretreatment): preventing the Sham+saline treatment-induced decrease in 11-DOC through PID29
